According to ChEMBL document CHEMBL1201862, “PubChem BioAssay data set” (2004):
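Cells were grown in 96-well plates and exposed to each compound for 48 hours at five concentrations; endpoints were interpolated linearly between bracketing concentrations, or set to the highest concentration if not reached. GI50: concentration for 50% inhibition of growth.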 Activity calls are given as the source filed them. No stated cut-off is given here; in the data, active = GI50 up to about 1.1 µM and inactive = higher.

Assays:
Assay in all cases: inhibition of tumour cell growth, NCI panel, 48 h
786-0 = system: 786-0
A549 = system: A549
HCT-116 = system: HCT-116
HL-60 = system: HL-60
HT-29 = system: HT-29
K562 = system: K562
M14 = system: M14
MCF7 = system: MCF7
MDA-N = system: MDA-N
SF-539 = system: SF-539
SK-MEL-2 = system: SK-MEL-2
SR = system: SR
SW-620 = system: SW-620
T47D = system: T47D
TK-10 = system: TK-10
UO-31 = system: UO-31
CCRF-CEM = system: CCRF-CEM
COLO 205 = system: COLO 205
Malme-3M = system: Malme-3M
SN12C = system: SN12C

Measured: GI50

CC1=NN(c2cccc(Cl)c2)C2(SCC(=O)N2c2nc3ccccc3s2)/C1=C\c1cccs1 (centres undefined)
inactive: 786-0 19.5 µM | A549 33.8 µM | HCT-116 20.6 µM | HL-60 27.9 µM | HT-29 21.6 µM | K562 4.58 µM | M14 29.7 µM | MCF7 27.4 µM | MDA-N 21.1 µM | SF-539 5.01 µM | SK-MEL-2 18.8 µM | SR 11.7 µM | SW-620 34.3 µM | T47D 24.9 µM | TK-10 31.7 µM | UO-31 22.4 µM

CC(=O)OC1CC2C(=O)C(=O)C1(C)C2(C)C (centres undefined)
inactive: 786-0 > 100 µM | A549 > 100 µM | CCRF-CEM > 100 µM | COLO 205 > 100 µM | HCT-116 > 100 µM | HL-60 > 10 µM | HT-29 > 100 µM | K562 > 100 µM | M14 > 100 µM | MCF7 > 100 µM | MDA-N > 100 µM | Malme-3M > 100 µM | SN12C > 100 µM | SR > 100 µM | SW-620 > 100 µM | T47D > 100 µM | TK-10 > 100 µM | UO-31 > 100 µM

O=c1[nH]c(=O)n(COC(CO)CO)cc1-c1ccccc1
inactive: 786-0 > 100 µM | A549 > 100 µM | CCRF-CEM > 100 µM | COLO 205 > 100 µM | HCT-116 > 100 µM | HL-60 > 100 µM | HT-29 > 100 µM | K562 > 100 µM | M14 > 100 µM | MCF7 > 100 µM | MDA-N > 100 µM | Malme-3M > 100 µM | SK-MEL-2 > 100 µM | SN12C > 100 µM | SR > 100 µM | SW-620 > 100 µM | T47D > 100 µM | TK-10 > 100 µM | UO-31 > 100 µM

Cc1c(C)c(C)c(-n2[nH]c(=O)n(C)c2=O)c(C)c1C
inactive: 786-0 > 100 µM | A549 > 100 µM | CCRF-CEM > 100 µM | COLO 205 > 100 µM | HCT-116 > 100 µM | HL-60 > 100 µM | HT-29 > 100 µM | K562 > 100 µM | M14 > 100 µM | MCF7 > 100 µM | MDA-N > 100 µM | SF-539 > 100 µM | SK-MEL-2 > 100 µM | SN12C > 100 µM | SR > 100 µM | SW-620 > 100 µM | T47D > 100 µM | TK-10 > 100 µM | UO-31 52.5 µM

CC(C(=O)ON1C(=O)CCC1=O)c1ccc(C(=O)c2ccccc2)s1 (centres undefined)
inactive: 786-0 > 100 µM | A549 > 100 µM | CCRF-CEM > 100 µM | COLO 205 > 100 µM | HCT-116 > 100 µM | HT-29 > 100 µM | K562 > 100 µM | M14 > 100 µM | MCF7 > 100 µM | MDA-N > 100 µM | Malme-3M > 100 µM | SK-MEL-2 > 100 µM | SN12C > 100 µM | SR > 100 µM | SW-620 > 100 µM | T47D > 100 µM | TK-10 > 100 µM | UO-31 > 100 µM

O=[N+]([O-])c1ccc2nc3n(c2c1)C(c1c(F)cccc1F)SC3 (centres undefined)
inactive: 786-0 > 100 µM | A549 > 10 µM | CCRF-CEM > 100 µM | HCT-116 > 100 µM | HT-29 > 100 µM | K562 > 10 µM | MCF7 > 100 µM | MDA-N > 100 µM | Malme-3M > 100 µM | SN12C > 100 µM | SR 92.3 µM | SW-620 > 100 µM | T47D > 10 µM | TK-10 > 100 µM
